Values joined by “and” are separate entries in the source; they are usually repeats but may differ in a detail not shown here. Identical values can stand only once.

For one assay, the target named is T1, cbv1+β1W163I (Rattus norvegicus, UniProt P97678, W163I).
T1 construct: made in house; host or cells: CHO cells, transient transfection; sucrose-gradient membrane preparation
As to the kind of experiment: Channel activity (NPo) in POPE/POPS bilayers, cbv1+β1W163I. The format is biochemical. The note with it: for normalized NPo, time course Fig 2E: W163I PROG. The text has this: BK channel-forming slo1 cDNA (cbv1 isoform; AY330293) was cloned from rat cerebral artery SM cells, and inserted into pcDNA3.1 vector as described. BK β1 cDNA (KCNMB1 product; NP_011452; FJ154955) were isolated from rat cerebral artery SM cells and cloned as described. β4 cDNA (KCNMB4; NP_055320; AY028605) were generously provided by Dr. Ligia Toro. CHO cells were transiently transfected with cbv1 ± β1-, or β4-carrying pcDNA3.1 using X-tremeGENE HP (Sigma-Aldrich). Mutations to β1/4 cDNAs were conducted by Genscript, with sequences being confirmed to be >99% identical to KCNMB1 product; NP_011452 or β4 KCNMB4; NP_055320; respectively. β1/4 and mutant constructs were flag-tagged (DYKDDDDK-tag) by Genscript services for subsequent immunoprecipitation and use in microscale thermophoresis studies.
Proteins for electrophysiological recordings in artificial lipid bilayers remained untagged. Cells were transiently transfected as described above, pelleted and re-suspended on ice in 10 ml of buffer solution of the following composition (mM): 30 KCl, 2 MgCl2, 10 HEPES, 5 EGTA; pH 7.2. A membrane preparation was obtained using a sucrose gradient as described. Aliquots were stored at −80 °C. BK channel-mediated ionic current was recorded in planar lipid bilayers consisting of a POPE:POPS 3:1 (w/w) mixture. Lipid mixtures were dried under N2 and re-suspended in 25 mg/ml of n-decane BK currents following incorporation into horizontal bilayers at 300/30 mM cis/trans gradient as detailed elsewhere. Ion currents were obtained during a 10-min gap-free recording at 0 mV in the presence of 0.01, 10 μM PROG, 10 μM PROG-oxime, or vehicle control (dimethyl sulfoxide; DMSO). Currents were obtained in gap-free mode using a Warner BC-525D amplifier, low pass-filtered at 1 kHz and sampled at 5 kHz with Digidata 1550B/pCLAMP 11 (Molecular Devices). For comparison with previous data from us[16],[17],[45]–[47], studies were conducted at 20–22 °C. PROG stock, oxime stock or vehicle control (DMSO) was added to the bilayer cis chamber to reach final concentrations (0.01–10 µM), with all compounds being dissolved with the same concentration of DMSO (0.1%); n = 5–10 for each group.
Patch-clamp and bilayer data were analyzed using Clampfit 10.7 software (Molecular Devices). NPo was used as an index of channel steady-state activity where N = number of channels in the patch (defined as a maximal number of opening levels at Po≤1) and Po=single channel open probability. Drug-induced NPo changes were determined by comparing baseline NPo (i.e., NPo with the patch/cell perfused with bath solution) to the NPo from the same patch/cell exposed to the agent under study (DMSO/PROG/oxime) dissolved in bath solution. NPo and mean open time values were automatically calculated using Clampfit 10.7, the latter using a 50% threshold detection event.

Assay [1] concerns slo1 (cbv1 isoform)+β4 BK channels. The assay is described as follows: Channel activity (NPo) in POPE/POPS bilayers, cbv1+β4. The format is biochemical, rat. To be noted: 10 μM. The text has this:
BK channel-forming slo1 cDNA (cbv1 isoform; AY330293) was cloned from rat cerebral artery SM cells, and inserted into pcDNA3.1 vector as described. BK β1 cDNA (KCNMB1 product; NP_011452; FJ154955) were isolated from rat cerebral artery SM cells and cloned as described. β4 cDNA (KCNMB4; NP_055320; AY028605) were generously provided by Dr. Ligia Toro. CHO cells were transiently transfected with cbv1 ± β1-, or β4-carrying pcDNA3.1 using X-tremeGENE HP (Sigma-Aldrich). […]
Proteins for electrophysiological recordings in artificial lipid bilayers remained untagged. […] BK channel-mediated ionic current was recorded in planar lipid bilayers consisting of a POPE:POPS 3:1 (w/w) mixture. […]
Patch-clamp and bilayer data were analyzed using Clampfit 10.7 software (Molecular Devices). […] Drug-induced NPo changes were determined by comparing baseline NPo (i.e., NPo with the patch/cell perfused with bath solution) to the NPo from the same patch/cell exposed to the agent under study (DMSO/PROG/oxime) dissolved in bath solution. NPo and mean open time values were automatically calculated using Clampfit 10.7, the latter using a 50% threshold detection event.

In assay [2] the test system is de-endothelialized, pressurized MCA segments (C57BL/6 male). The assay is described as follows: EtOH-induced constriction of pressurized MCA in vitro. More on the design: species or system mouse. The note with it: 10 µM PROG, 10-75 mM EtOH. The source says: Eight-12 week-old C57BL/6J and KCNMB1^−/− on C57BL/6 background mice of both sexes were deeply anesthetized with isoflurane via inhalation in a tightly sealed jar. Resistance size MCAs (~100 μm in external diameter) were dissected out of the mouse brains after animal euthanasia with sharp scissors. For de-endothelialized records, the endothelium was removed by passing an air bubble into the vessel lumen for 90 s[30]. This method has been consistently used by our group and validated using endothelium-dependent versus endothelium-independent vasodilators[16],[26]. Arteries were cannulated as previously described by our group[26],[40]. MCAs were cut into 5 to 10 mm-long segments under a microscope (Nikon SMZ645). The segment was cannulated at each end, and the artery exterior was continuously perfused with physiologic sodium saline (PSS) of the following composition (mM): 119 NaCl, 4.7 KCl, 1.2 KH2PO4, 1.6 CaCl2, 1.2 MgSO4, 0.023 EDTA, 11 glucose, 24 NaHCO3, pH=7.4. PSS was continuously bubbled with an O2/CO2/N2 (21/5/74%) gas mixture and maintained at 35–37 °C. The artery external wall diameter was measured using the automatic edge-detection function of lonWizard software (lonOptix) via Sanyo VCB-3512T camera (Sanyo Electric Co.). Arteries were first incubated at an intravascular pressure of 10 mm Hg for 10 min. Then intravascular pressure was increased to 60 mmHg and held steady throughout the experiment to induce myogenic tone development and maintenance[19],[30],[51]. Each artery segment was exposed to PROG, PROG-oxime (in presence and absence of 1 µM paxilline) only once to avoid development of desensitization during repeated applications of PROG-containing solution. To determine arterial viability, arterial contractility was probed with a high KCl solution at the end of each experiment. The high KCl solution was composed of the following composition (mM): 63.7 NaCl, 60 KCl, 1.2 KH2PO4, 1.2 MgSO4, 0.023 EDTA, 11 glucose, 24 NaHCO3, 1.6 CaCl2, pH=7.4. Like PSS, the high-KCl solution was continuously bubbled with O2/CO2/N2 (21/5/74%) gas mixture and maintained at 35–37 °C.

T1 sequence (P97678 whole entry W163I): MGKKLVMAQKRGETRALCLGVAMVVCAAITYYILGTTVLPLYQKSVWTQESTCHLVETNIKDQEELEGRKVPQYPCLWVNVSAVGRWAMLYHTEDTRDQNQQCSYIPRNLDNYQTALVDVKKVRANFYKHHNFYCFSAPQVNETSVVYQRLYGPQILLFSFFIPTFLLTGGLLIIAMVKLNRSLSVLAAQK
T1 sequence (Q62976 1-1148 isoform Q62976-2 partner): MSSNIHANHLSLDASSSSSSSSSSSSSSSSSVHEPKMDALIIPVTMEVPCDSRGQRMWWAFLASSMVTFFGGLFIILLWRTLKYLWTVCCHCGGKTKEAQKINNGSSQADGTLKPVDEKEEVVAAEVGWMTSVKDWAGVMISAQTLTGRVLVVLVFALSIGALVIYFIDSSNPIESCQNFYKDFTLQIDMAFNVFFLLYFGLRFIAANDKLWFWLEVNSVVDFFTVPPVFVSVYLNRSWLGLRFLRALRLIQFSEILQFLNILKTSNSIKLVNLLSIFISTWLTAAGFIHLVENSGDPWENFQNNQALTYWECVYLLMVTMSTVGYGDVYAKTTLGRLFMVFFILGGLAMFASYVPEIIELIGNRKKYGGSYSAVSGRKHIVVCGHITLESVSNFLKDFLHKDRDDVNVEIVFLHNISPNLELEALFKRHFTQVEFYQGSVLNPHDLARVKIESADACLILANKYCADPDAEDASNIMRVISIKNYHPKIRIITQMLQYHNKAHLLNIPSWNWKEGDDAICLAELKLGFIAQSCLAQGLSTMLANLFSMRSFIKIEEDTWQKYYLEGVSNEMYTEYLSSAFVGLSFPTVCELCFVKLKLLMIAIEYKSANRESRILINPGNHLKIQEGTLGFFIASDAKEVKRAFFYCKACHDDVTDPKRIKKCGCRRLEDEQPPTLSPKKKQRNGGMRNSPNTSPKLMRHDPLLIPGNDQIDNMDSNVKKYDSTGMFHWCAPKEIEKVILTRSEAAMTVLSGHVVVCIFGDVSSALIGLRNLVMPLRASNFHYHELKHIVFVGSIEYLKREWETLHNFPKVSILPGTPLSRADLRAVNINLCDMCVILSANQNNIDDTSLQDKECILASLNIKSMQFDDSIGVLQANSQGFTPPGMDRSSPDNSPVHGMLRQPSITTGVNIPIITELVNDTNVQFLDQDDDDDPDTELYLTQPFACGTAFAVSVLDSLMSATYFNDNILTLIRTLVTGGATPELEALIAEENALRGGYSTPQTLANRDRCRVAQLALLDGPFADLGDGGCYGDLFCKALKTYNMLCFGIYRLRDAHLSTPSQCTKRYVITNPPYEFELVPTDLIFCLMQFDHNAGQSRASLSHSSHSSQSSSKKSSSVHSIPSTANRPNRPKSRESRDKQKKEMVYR

As for `CC(=O)[C@H]1CC[C@H]2[C@@H]3CCC4=CC(=O)CC[C@]4(C)[C@H]3CC[C@]12C` [PROG, Progesterone], the “action on channel activity (NPo)” value on cbv1+β1W163I (10 µM, vs DMSO) was “effectively abolished PROG action”; in assay [1], “readily and robustly activated”. Besides, the “normalized NPo, time course Fig 2E” value is 1 on cbv1+β1W163I (time 1 min (normalisation reference)); 0.8408 and 0.8822 and 1.039 and 0.6048 and 0.9835 at cbv1+β1W163I (time 2 min); 0.9156 and 1.236 and 1.01 and 0.7339 and 0.9865 on cbv1+β1W163I (time 6 min); 1.033 and 1.222 and 0.6583 and 1.166 on cbv1+β1W163I (time 7 min); 0.9156 and 0.8317 and 0.9282 and 1.117 at cbv1+β1W163I (time 8 min); 1.0966 and 0.7071 and 0.5738 and 1.067 on cbv1+β1W163I (time 9 min). Also, the “normalized NPo, time course Fig 2E” value at cbv1+β1W163I (time 10 min) is 1.291 and 0.8215 and 0.6728 and 1.157. In addition, the “effect on EtOH-induced vasoconstriction” value in assay [2] is reported as “blunted EtOH-induced vasoconstriction at all alcohol concentrations”.

(Values after publication PMC10636063, “Progesterone activation of β1-containing BK channels involves two binding sites” (Nature Communications, 2023).)
